Results: patent publication US5723139A, “Skin care compositions containing a polycyclic triterpene carboxylic acid and a retinoid” (Chesebrough-Pond's USA Co., Division of Conopco, Inc., priority 1996, dated 1998)
“Also recorded” adds a separate entry of the source.

Columns and labels:
[1] = test system: human keratinocyte transglutaminase I (TGase I); assay: Transglutaminase I ELISA in cultured keratinocytes, normalized to DNA content (Examples 2 and 3 procedure); type: cell-based; details: for mean TGase/DNA × 10^5 ± s.d / effect on keratinocyte TG1 level / differentiation (in words) / activity at 1 µM / activity at 0.25 µM / activity at 0.0025 µM: 72 hours; for mean TGase/DNA × 10^5 ± s.d / activity at 1 µM / activity at 0.25 µM / activity at 0.0025 µM: n = 3; for activity at 1 µM / activity at 0.25 µM / activity at 0.0025 µM: Homo sapiens, Keratinocyte, % of control; for activity at 0.25 µM: Example 3, Table 3; for activity at 0.0025 µM: Example 2, Table 2; for effect on keratinocyte differentiation / transglutaminase I levels (in words, summary): summary of Examples 1-3
Procedure: Human keratinocytes, isolated from neonatal foreskin by trypsin treatment were grown in Dulbecco Modification Eagle (DME) Hams F12 (1:1) medium/10% fetal calf serum in the presence of irradiated 3T3 mouse fibroblasts for establishing dividing keratinocyte colonies. Cells were grown under the above condition until their second passage and kept frozen for future use. Frozen second passage keratinocytes were thawed and plated into the above medium and grown for five days before they were switched to a serum-free MCDB 153-based medium keratinocyte growth medium (KGM) from Clonetics Corporation, San Diego, Calif., containing 0.15 mM Ca, or keratinocyte serum-free media (KSFM) from GIBCO containing 0.09 mM Ca). On day 7, when the cells were 80-90% confluent, they were trypsinized and plated in the serum-free medium for the various experiments.
During the process of terminal differentiation in the epidermis, a 15 nm thick layer of protein, known as the cornified envelope (CE) is formed on the inner surface of the cell periphery. The CE is composed of numerous distinct proteins which have been cross-linked together by the formation of N^ε -(γ-glutamyl) lysine isodipeptide bonds catalyzed by the action of at least two different transglutaminases (TGases) expressed in the epidermis. TGase I is expressed in abundance in the differentiated layers of the epidermis, especially the granular layer, but is absent in the undifferentiated basal epidermis. Thus TGase I is a useful marker of epidermal keratinocyte differentiation with high TGase I levels indicating a more differentiated state. An ELISA based TGase I assay, using a TGase I antibody, was used to assess the state of differentiation of the cultured keratinocytes in the examples that follow.
Keratinocytes (cultured as described above) were plated in 96 well plates at a density of 3,000 cells per well in 200 μl of cell culture media. After incubation for four days, the media was changed to media containing test compounds (six replicates per test). The cells were cultured for a further 72 hours after which time the media was aspirated and the plates stored at -70° C. After the plates were removed from the freezer, the cells were further freezed fractured by freezing and thawing and then washed 3x with PBS. The cells were incubated for one hour at room temperature (R/T) with TBS/5% BSA buffer. Cells were then incubated with 100 μl of monoclonal anti-human transglutaminase (IgG) mouse antibody (primary antibody) obtained from Biomedical Technologies Inc. diluted 1:2000 in TBS/1% BSA buffer for two hours at 37° C., and then rinsed six times with wash buffer (TBS/1% BSA/0.05% Tween-20). Cells were next incubated with 100 μl of Fab fragment, peroxidase conjugated anti-mouse IgG antibody (secondary antibody) from Amersham diluted 1:4,000 in wash buffer for two hours at 37° C. and then rinsed three times with wash buffer and three times with PBS. Cells were incubated with substrate solution (4mg o-phenylene diamine and 3.3 μl 30% H2 O2 in 10 mL 0.1M citrate buffer, pH 5.0) for five minutes at R/T and in darkness (under aluminum foil). The reaction was stopped by the addition of 50 μl 4N H2SO4. The absorbance of samples was read at 492 nm in the plate reader. Out of the six replicates, four were treated with both antibodies, two were treated only with the secondary antibody (i.e., to determine the background binding of the enzyme conjugated antibody). Transglutaminase I levels were determined by subtracted background from the readings from each treatment and determining the mean s.d. for the replicates exposed to both antibodies.
The level of TGase-1 detected after treatment of the cells could be influenced by cell number, i.e., the greater the number of cells the greater the level of TGase-1 detected. The level of TGase-1 was normalized to DNA content of the cells in the same well thus eliminating variation due to differences in cell number. […]

[2] = test system: human keratinocyte transglutaminase I (TGase I); assay: Transglutaminase I ELISA in cultured keratinocytes, normalized to DNA content (Example 1 procedure); type: cell-based; details: 2.5×10^-7 M, 2.5×10^-8 M and 2.5×10^-9 M, vs ethanol control
Procedure: Human keratinocytes, isolated from neonatal foreskin by trypsin treatment were grown in Dulbecco Modification Eagle (DME) Hams F12 (1:1) medium/10% fetal calf serum in the presence of irradiated 3T3 mouse fibroblasts for establishing dividing keratinocyte colonies. Cells were grown under the above condition until their second passage and kept frozen for future use. […] On day 7, when the cells were 80-90% confluent, they were trypsinized and plated in the serum-free medium for the various experiments.
During the process of terminal differentiation in the epidermis, a 15 nm thick layer of protein, known as the cornified envelope (CE) is formed on the inner surface of the cell periphery. […]
Keratinocytes (cultured as described above) were plated in 96 well plates at a density of 3,000 cells per well in 200 μl media. […] The absorbance of samples was read at 492 nm in the plate reader. […] TGase levels were determined by subtracting background from the readings from each treatment and determining mean±s.d. for the replicates exposed to both Ab.
The level of TGase-1 was normalized to DNA content of the cells in the same well thus eliminating variation due to differences in cell number. DNA quantitation is a particularly useful indicator of cell number, including keratinocyte cell number, because each cell has to all intents and purposes an identical genome and therefore an identical quantity of DNA. […]

[3] = test system: skin keratinocytes; assay: Thymidine incorporation / proliferation of skin keratinocytes; type: cell-based, human; details: summary of Examples 1-3
[4] = Example 3, 2.5×10^-7 M retinoic acid or retinol, 10^-6 M oleanolic acid
[5] = Example 2, 2.5×10^-9 M retinoic acid or retinol, 10^-6 M glycyrrhizic acid

Structure (SMILES): CC1(C)CC[C@]2(C(=O)O)CC[C@]3(C)C(=CC[C@@H]4[C@@]5(C)CC[C@H](O)C(C)(C)[C@@H]5CC[C@]43C)[C@@H]2C1 [Oleanolic Acid, Oleanolic acid]
- mean TGase/DNA × 10^5 ± s.d ([1]; 10^-6 M, Table 3): 20.95 ± 1.95 × 10^5
- effect on keratinocyte TG1 level / differentiation (in words) [1, 4]: only a very slight inhibitory effect on the keratinocyte TG1 level
- activity at 1 µM ([1]; 10^-6 M, Table 3): 93%

Structure (SMILES): CC1=C(/C=C/C(C)=C/C=C/C(C)=C/CO)C(C)(C)CCC1 [ROH, Retinol]
- mean TGase/DNA × 10^5 ± s.d ([1]; 2.5 × 10^-7 M, Table 3): 18.27 ± 3.30 × 10^5
- mean TGase/DNA × 10^5 ± s.d ([1]; 2.5 × 10^-9 M, Table 2): 8.29 ± 2.11 × 10^5
- effect on keratinocyte TG1 level / differentiation (in words) [1, 5]: less effective than retinoic acid
- effect on keratinocyte TG1 level / differentiation (in words) [1, 4]: less effective than retinoic acid
- activity at 0.25 µM ([1]; 2.5 × 10^-7 M): 81%
- activity at 0.0025 µM ([1]; 2.5 × 10^-9 M): 68%
- effect on keratinocyte differentiation / transglutaminase I levels (in words, summary) [1]: significantly less effective than retinoic acid at inhibiting keratinocyte differentiation
- effect on keratinocyte differentiation / transglutaminase level (in words) [2]: dose dependent

Structure (SMILES): CC1=C(/C=C/C(C)=C/C=C/C(C)=C/C(=O)O)C(C)(C)CCC1 [RA, Retinoic acid, reference compound]
- mean TGase/DNA × 10^5 ± s.d ([1]; 2.5 × 10^-7 M, Table 3): 9.95 ± 2.74 × 10^5
- mean TGase/DNA × 10^5 ± s.d ([1]; 2.5 × 10^-9 M, Table 2): 4.04 ± 1.23 × 10^5
- effect on keratinocyte TG1 level / differentiation (in words) [1, 5]: very effective at repressing keratinocyte TG1 levels
- effect on keratinocyte TG1 level / differentiation (in words) [1, 4]: very effective at repressing keratinocyte TG1 levels
- activity at 0.25 µM ([1]; 2.5 × 10^-7 M): 44%
- activity at 0.0025 µM ([1]; 2.5 × 10^-9 M): 33%
- effect on keratinocyte differentiation / transglutaminase I levels (in words, summary) [1]: decreased transglutaminase I levels
- effect on thymidine incorporation / keratinocyte proliferation (in words) [3]: increased thymidine incorporation
- effect on keratinocyte differentiation / transglutaminase level (in words) [2]: decreased keratinocyte differentiation; also recorded: dose dependent

Structure (SMILES): CC1(C)[C@@H](O[C@H]2O[C@H](C(=O)O)[C@@H](O)[C@H](O)[C@H]2O[C@@H]2O[C@H](C(=O)O)[C@@H](O)[C@H](O)[C@H]2O)CC[C@]2(C)[C@H]3C(=O)C=C4[C@@H]5C[C@@](C)(C(=O)O)CC[C@]5(C)CC[C@@]4(C)[C@]3(C)CC[C@@H]12 [Glycyrrhizic acid]
- mean TGase/DNA × 10^5 ± s.d ([1]; 10^-6 M, Table 2): 11.98 ± 3.00 × 10^5
- effect on keratinocyte TG1 level / differentiation (in words) [1, 5]: no inhibitory effect on the keratinocyte TG1 level
- activity at 1 µM ([1]; 10^-6 M, Table 2): 99%
